Results from patent US11390631B1, “Benzodiazepine derivatives as RSV inhibitors” (priority 2015, dated 2022).

test system: Human RSV-A (“Long” strain); assay: RSV-A assay: inhibition of cytopathic effect in Hep-2 cells, ATPlite readout; assay type: cell-based, Human respiratory syncytial virus (HRSV); conditions: human respiratory syncytial virus, HEp-2, 120 h, read-out: Human RSV-A (“Long” strain) EC50
Text: Hep-2 cells, (originally derived from tumors grown in irradiated-cortisonised weanling rats that had been injected with epidermoid carcinoma tissue from a person's larynx, but later found to be indistinguishable from HeLa cells by PCR DNA analysis), were used for the culturing of genotype A, “Long” strain RSV. Flasks were inoculated with RSV and viral stocks were collected once cytopathic effect (CPE) was greater than 90%. Viral stocks in 25% sucrose media were snap frozen using liquid nitrogen to increase viral stability. Viral stock titers were quantified by tissue culture infectious dose 50% (TCID50) using 8,000 cells per well and 3-fold viral dilutions across a 96-well plate, cultured for 4 days. Viral stock titers were also quantified by a plaque forming unit assay, as described elsewhere.
Following extensive parameter testing, the final assay is run as follows: Hep-2 cells are seeded into the inner 60 wells of a 96-well plate at 8,000 cells per well in a volume of 50 μL using Growth Media (DMEM without phenol red, 1% L-Glut, 1% Penn/Strep, 1% nonessential amino acids, 10% heat-inactivated FBS). 2-fold serial dilutions of control and test compounds are added to the wells in duplicate in a total volume of 25 μL. Viral stock is then added to the wells at a multiplicity of infection (MOI) of 0.1 in a volume of 25 μL, bringing the total volume of each well to 100 μL. The MOI is calculated using the PFU/mL, or TCID50 if unavailable. Each 96-well plate has a control column of 6 wells with cells and virus but no compound (negative control, max CPE), a column with cells but no compound or virus (positive control, minimum CPE), and a column with no cells or virus or compound (background plate/reagent control). The control wells with cells but no virus are given an additional 25 uL of growth media containing an equal quantity of sucrose as those wells receiving the viral stock in order to keep consistent in media and volume conditions. The outer wells of the plate are filled with 125 μL of moat media (DMEM, 1% Penn/Strep) to act as a thermal and evaporative moat around the test wells. Following a 5-day incubation period, the plates are read using ATPlite (50 uL added per well), which quantifies the amount of ATP (a measure of cell health) present in each well. Assay plates are read using the Envision luminometer. In parallel, cytotoxicity is examined on an additional 96-well plate treated in an identical manner, but substituting the 25 μL of viral stock for 25 μL of growth media. […] EC50 ranges are as follows: A<0.4 μM; B 0.4-0.8 μM; C>0.8 μM and CC50 ranges are as follows: A>50 μM; B 10-50 μM; C<10 μM.

Structure (SMILES) | EC50
O=C1Nc2ccccc2C(c2ccccc2)=NC1Nc1nnc(-c2ccccc2N2CCS(=O)(=O)CC2)o1 (stereo not drawn) [Example 240] | > 800 nM
O=C1Nc2ccccc2C(c2ccccc2)=NC1Nc1nnc(-c2cccnc2N2CCCCC2)o1 (stereo not drawn) [Example 241] | > 800 nM
C[C@@H]1CN(c2ccc(-c3nnc(N[C@H]4N=C(c5ccccc5)c5ccccc5NC4=O)o3)c(Cl)c2)C[C@H](C)O1 [Example 243] | > 800 nM
O=C1Nc2ccccc2C(c2ccccc2)=N[C@@H]1Nc1nnc(-c2ccc(N3C4CCC3COC4)cc2Cl)o1 [Example 244] | > 800 nM
O=C1Nc2ccccc2C(c2ccccc2)=NC1Nc1nnc(-c2cccnc2N2CCCC(F)(F)C2)o1 (stereo not drawn) [Example 246] | > 800 nM
CO[C@H]1CCN(c2ncccc2-c2nnc(NC3N=C(c4ccccc4)c4ccccc4NC3=O)o2)C1 (stereo partly drawn) [Example 247] | > 800 nM
O=C1Nc2ccccc2C(c2ccccc2)=NC1Nc1nnc(-c2cccnc2N2C[C@@H]3C[C@H]2CO3)o1 (stereo partly drawn) [Example 248] | > 800 nM
COC1CCN(c2ncccc2-c2nnc(NC3N=C(c4ccccc4)c4ccccc4NC3=O)o2)CC1 (stereo not drawn) [Example 254] | > 800 nM
O=C1Nc2ccccc2C(c2ccccc2)=NC1Nc1nnc(-c2cccnc2N2CCC(O)CC2)o1 (stereo not drawn) [Example 255] | > 800 nM
O=C1Nc2ccccc2C(c2ccccc2)=NC1Nc1nnc(-c2cccnc2N2CCC(F)CC2)o1 (stereo not drawn) [Example 256] | > 800 nM
COC1CN(c2ncccc2-c2nnc(NC3N=C(c4ccccc4)c4ccccc4NC3=O)o2)C1 (stereo not drawn) [Example 258] | > 800 nM
O=C1Nc2ccccc2C(c2ccccc2)=NC1Nc1nnc(-c2cccnc2N2CC(F)(F)C2)o1 (stereo not drawn) [Example 259] | > 800 nM
N#CC1CCN(c2ncccc2-c2nnc(NC3N=C(c4ccccc4)c4ccccc4NC3=O)o2)CC1 (stereo not drawn) [Example 260] | > 800 nM
C[C@H]1COCCN1c1ncccc1-c1nnc(NC2N=C(c3ccccc3)c3ccccc3NC2=O)o1 (stereo partly drawn) [Example 261] | > 800 nM
C[C@@H]1CN(c2ncccc2-c2nnc(NC3N=C(c4ccccc4)c4ccccc4NC3=O)o2)CCO1 (stereo partly drawn) [Example 262] | > 800 nM
O=C1Nc2ccccc2C(c2ccccc2)=NC1Nc1nnc(-c2cccnc2N2C[C@H]3C[C@@H]2CO3)o1 (stereo partly drawn) [Example 264] | > 800 nM
O=C1Nc2ccccc2C(c2ccccc2)=NC1Nc1nnc(-c2cccnc2N2C3CCC2COC3)o1 (stereo not drawn) [Example 265] | > 800 nM
O=C1Nc2ccccc2C(c2ccccc2)=NC1Nc1nnc(-c2cccnc2N2CC3CCC(C2)O3)o1 (stereo not drawn) [Example 266] | 400 to 800 nM
O=C1Nc2ccccc2C(c2ccccc2)=NC1Nc1nnc(-c2cccnc2N2C[C@H]3COC[C@H]3C2)o1 (stereo partly drawn) [Example 267] | > 800 nM
O=C1Nc2ccccc2C(c2ccccc2)=N[C@@H]1Nc1nnc(-c2cccnc2N2CCn3ncnc3C2)o1 [Example 270] | > 800 nM
COC1CN(c2cc(C(F)(F)F)cnc2-c2nnc(N[C@H]3N=C(c4ccccc4)c4ccccc4NC3=O)o2)C1 [Example 271] | > 800 nM
O=C1Nc2ccccc2C(c2ccccc2)=NC1Nc1nnc(-c2ccc(-n3cncn3)cc2)o1 (stereo not drawn) [Example 273] | 400 to 800 nM
N#CC1CN(c2ncccc2-c2nnc(NC3N=C(c4ccccc4)c4ccccc4NC3=O)o2)C1 (stereo not drawn) [Example 274] | > 800 nM
O=C1Nc2ccccc2C(c2ccccc2)=N[C@@H]1Nc1nnc(-c2ccc(C(F)(F)F)nc2N2C3CCC2COC3)o1 [Example 275] | > 800 nM
Cc1ccc(-c2nnc(N[C@H]3N=C(c4ccccc4)c4ccccc4NC3=O)o2)c(N2CC3CCC(C2)O3)n1 [Example 279] | < 400 nM
Cc1ccc(-c2nnc(N[C@H]3N=C(c4ccccc4)c4ccccc4NC3=O)o2)c(N2C3CCC2COC3)n1 [Example 280] | < 400 nM

Structure (SMILES) | EC50
N#Cc1ccc(-c2nnc(N[C@H]3N=C(c4ccccc4)c4ccccc4NC3=O)o2)c(N2CC3CCC(C2)O3)c1 [Example 281] | < 400 nM
O=C1Nc2ccccc2C(c2ccccc2)=N[C@@H]1Nc1nnc(-c2ncc(C(F)(F)F)cc2-c2ccncc2)o1 [Example 282] | > 800 nM
O=C1Nc2ccccc2C(c2ccccc2)=NC1Nc1nnc(-c2ccccc2-n2cccn2)o1 (stereo not drawn) [Example 283] | > 800 nM
C[C@@H]1CN(c2cc(F)ccc2-c2nnc(N[C@H]3N=C(c4ccccc4)c4ccccc4NC3=O)o2)C[C@H](C)O1 [Example 284] | > 800 nM
C[C@@H]1COCCN1c1cc(C#N)ccc1-c1nnc(N[C@H]2N=C(c3ccccc3)c3ccccc3NC2=O)o1 [Example 285] | < 400 nM
Cc1ccc(-c2nnc(N[C@H]3N=C(c4ccccc4)c4ccccc4NC3=O)o2)c(N2CCOC[C@H]2C)n1 [Example 286] | < 400 nM
O=C1Nc2ccccc2C(c2ccccc2)=NC1Nc1nnc(C23CCN(CC2)CC3)o1 (stereo not drawn) [Example 287] | > 800 nM
O=C1Nc2ccccc2C(c2ccccc2)=N[C@@H]1Nc1nnc(-c2ccc(F)cc2N2CC3CCC(C2)O3)o1 [Example 288] | 400 to 800 nM
N#Cc1ccc(-c2nnc(N[C@H]3N=C(c4ccccc4)c4ccccc4NC3=O)o2)c(N2C3CCC2COC3)c1 [Example 289] | < 400 nM
O=C1Nc2ccccc2C(c2ccccc2)=N[C@@H]1Nc1nnc(-c2cnc(C(F)(F)F)nc2N2CC3CCC(C2)O3)o1 [Example 290] | > 800 nM
N#Cc1c[nH]c2cc(-c3nnc(N[C@H]4N=C(c5ccccc5)c5ccccc5NC4=O)o3)ccc12 [Example 291] | > 800 nM
O=C1Nc2ccccc2C(c2ccccc2)=N[C@@H]1Nc1nnc(-c2nnsc2N2CCOCC2)o1 [Example 292] | < 400 nM
O=C1Nc2ccccc2C(c2ccccc2)=N[C@@H]1Nc1nnc(-c2ncc(C(F)(F)F)cc2C2CC2)o1 [Example 293] | > 800 nM
C[C@@H]1COCCN1c1cc(C(F)(F)F)cnc1-c1nnc(N[C@H]2N=C(c3ccccc3)c3ccccc3NC2=O)o1 [Example 294] | < 400 nM
COc1ccc(-c2nnc(N[C@H]3N=C(c4ccccc4)c4ccccc4NC3=O)o2)c(N2CCOCC2)n1 [Example 295] | < 400 nM
CN1CCN(c2cc(C(F)(F)F)cnc2-c2nnc(N[C@H]3N=C(c4ccccc4)c4ccccc4NC3=O)o2)CC1=O [Example 296] | > 800 nM
CC(C)(O)CNc1cc(C(F)(F)F)cnc1-c1nnc(N[C@H]2N=C(c3ccccc3)c3ccccc3NC2=O)o1 [Example 297] | < 400 nM
COCCn1c(-c2nnc(N[C@H]3N=C(c4ccccc4)c4ccccc4NC3=O)o2)nc2ccccc21 [Example 298] | > 800 nM
O=C1Nc2ccccc2C(c2ccccc2)=N[C@@H]1Nc1nnc(-c2ncc(F)cc2N2CC3CCC(C2)O3)o1 [Example 299] | < 400 nM
C[C@@H]1COCCN1c1cc(C#N)cnc1-c1nnc(N[C@H]2N=C(c3ccccc3)c3ccccc3NC2=O)o1 [Example 301] | < 400 nM
CN(C)c1cc(C(F)(F)F)cnc1-c1nnc(N[C@H]2N=C(c3ccccc3)c3ccccc3NC2=O)o1 [Example 302] | > 800 nM
COCCNc1cc(C(F)(F)F)cnc1-c1nnc(N[C@H]2N=C(c3ccccc3)c3ccccc3NC2=O)o1 [Example 305] | < 400 nM
COCCn1ccnc1-c1nnc(N[C@H]2N=C(c3ccccc3)c3ccccc3NC2=O)o1 [Example 306] | > 800 nM
CNc1cc(C(F)(F)F)cnc1-c1nnc(N[C@H]2N=C(c3ccccc3)c3ccccc3NC2=O)o1 [Example 307] | > 800 nM
CN(CC(C)(C)O)c1cc(C(F)(F)F)cnc1-c1nnc(N[C@H]2N=C(c3ccccc3)c3ccccc3NC2=O)o1 [Example 308] | > 800 nM
